# From PMC11320734 (ACS Pharmacology & Translational Science, 2024)
# Where two headings read alike, the source gives them in different places.
# Legend:
# [1] = molecular target: MAGL (Homo sapiens, UniProt Q99685); test: Endocannabinoid target profiling: MAGL; type: biochemical
# [2] = Single-dose pharmacokinetics in male Wistar rats; type: in vivo; settings: rat, plasma
# Experimental: (§1) To characterize the pharmacokinetic behavior of RNB-61, studies in rodents were conducted at the in vivo facility of F. Hoffmann-La Roche Ltd. (Basel, Switzerland). The plasma-concentration time profile was studied in rodents after single-dose RNB-61 administration by oral gavage (p.o. microsuspension excipients 7.5% gelatin/0.62% NaCl) and intravenous bolus injection (i.v. solution, excipients NMP:NaCl (30:70)). Three groups of male Wistar rats (n = 2 per group) were administered RNB-61 either at 1 mg kg^–1 i.v., 3 mg kg^–1 p.o., or 26 mg kg^–1 p.o. Plasma samples were drawn at 0.083, 0.25, 0.5, 1, 2, 4, 8, and 24 postdose in the i.v. group and at 0.25, 0.5, 0.75, 1.5, 3, 5, 8, and 24 h postdose in the p.o. groups. The samples were analyzed for RNB-61 concentration by LC/MS-MS. For the LC/MS-MS analysis, and the samples were prepared by adding 100 uL to 400 uL ACN with ISTD (100 ng/mL Bosantan in ACN/MeOH 1/1), stirring, and centrifuging (4000 rpm, 65’). 100 uL of the supernatant were pipetted and diluted with 400 μL H2O at pH 3. The analytes were separated on a Restek C18 column (5 μm, 1.0 × 3 mm). The mobile phase consisted of water containing 0.1% HCOOH as solvent A and ACN containing 0.1% HCOOH as solvent B. The gradient curve starting with 5% B was changed to 90% B between 0.4 and 0.6 min and further increased to 95% B between 0.6 and 1.2 min. This was maintained until 1.4 min and then reduced and kept at 5% B between 1.45 and 2.0 min. The mass spectrometer was operated in the positive mode. All LC-MS/MS was done using the Agilent RapidFire Analyzer software (version 4.3). The pharmacokinetic parameters were estimated by noncompartmental analysis in the Certara WinNonlin software (version 5.3). A similar study design was run in mice with three groups receiving 2 mg kg^–1 i.v., 4 mg kg^–1 p.o., or 26 mg kg^–1 p.o., and plasma sampling occurring in a composite profile (n = 2 for each time point) up to 7 or 24 h postdose. Male C57/BL6 mice (n = 5 per group) were used to study the influence of P-gp efflux on brain penetration. Two groups of mice were administered RNB-61 by i.v. bolus injection at 1 mg kg^–1 (2 groups). In order to block P-gp activity, an i.v. bolus of 5 mg kg^–1 tariquidar[46] was injected into one group 30 min prior to RNB-61. Plasma was collected at 0.083, 0.25, 0.5, 2, 4, and 7 h postdose in a composite profile. Brain, CSF, and vitreous body were collected at terminal time points 0.5, 2, 4, and 7 h postdose.
# [3] = Rodent single-dose PK studies (summary rats and mice); type: in vivo
# Experimental: as §1, with “Two groups of mice were administered RNB-61 by i.v. bolus injection at 1 mg kg^–1 (2 groups). In order to block P-gp activity, an i.v. bolus of 5 mg kg^–1 tariquidar[46] was injected into one group 30 min prior to RNB-61. Plasma was collected at 0.083, 0.25, 0.5, 2, 4, and 7 h postdose in a composite profile. Brain, CSF, and vitreous body were collected at terminal time points 0.5, 2, 4, and 7 h postdose.” left out
# [4] = system: UUO-induced kidney fibrosis; test: Unilateral ureteral obstruction (UUO) model of kidney fibrosis; type: in vivo, Sprague–Dawley rats
# Experimental: In the ischemia/reperfusion (I/R) model of acute kidney injury (AKI),[47],[48] the compounds were administered orally by gavage to C57BL/6 mice 30 min before ischemia obtained by clamping both renal arteries and veins for 25 min, followed by 24 h of reperfusion. Mice were anesthetized using xylazine (10 mg kg^–1)/ketamine (100 mg kg^–1) injected intraperitoneally. Sham treated mice were treated identically except for the temporary closure of the renal vessels. After 24 h, under reanesthesia, plasma was taken for biomarker analysis. Thereafter, mice still in deep anesthesia were sacrificed by cervical dislocation. Creatinine, BUN (blood urea nitrogen), NGAL (neutrophil gelatinase-associated lipocalin), osteopontin, and KIM1 (kidney injury molecule-1) levels were determined using the following commercially available standard assays: creatinine: Roche Diagnostics 03263991, BUN: Roche Diagnostics 04460715, NGAL: BioPorto, Kit046 + Kit042, osteopontin: R&D Systems, MOST00, KIM-1: Abnova, KA1064. To assess fibrotic effects, we used the unilateral ureteral obstruction (UOO) model in Sprague–Dawley rats.[49] For the UOO model, rats were sacrificed after 5, 8, and 11 days and the percentage of PicroSirius Red positive areas (indicator of collagen III–I deposition) were measured in 4 μm histological cross sections of the kidney after 2% paraformaldehyde perfusion fixation and paraffin embedding. The extend of kidney fibrosis was quantified based on PicroSirius Red staining of 10 renal sections about 1 mm apart from each kidney. The collagen–III-I-positive pixel counts were determined in the cortical aspect of each kidney section from 10 optical fields using a 40× objective. As the total area analyzed was identical for all kidneys under investigation, the absolute number of pixels was used as the relevant readout. Vehicle treated animals received saline gavage only. The details of PicroSirius Red staining were previously described.[22]
# [5] = molecular target: hCB1R (Homo sapiens, UniProt P21554); test: Competition binding assay with [3H]-CP55940, HEK cell membranes; settings: read-out: Ki hCB1R (binding assay); [3H]-CP55940 competition; mean ± SD
# Chain of hCB1R (P21554 whole entry): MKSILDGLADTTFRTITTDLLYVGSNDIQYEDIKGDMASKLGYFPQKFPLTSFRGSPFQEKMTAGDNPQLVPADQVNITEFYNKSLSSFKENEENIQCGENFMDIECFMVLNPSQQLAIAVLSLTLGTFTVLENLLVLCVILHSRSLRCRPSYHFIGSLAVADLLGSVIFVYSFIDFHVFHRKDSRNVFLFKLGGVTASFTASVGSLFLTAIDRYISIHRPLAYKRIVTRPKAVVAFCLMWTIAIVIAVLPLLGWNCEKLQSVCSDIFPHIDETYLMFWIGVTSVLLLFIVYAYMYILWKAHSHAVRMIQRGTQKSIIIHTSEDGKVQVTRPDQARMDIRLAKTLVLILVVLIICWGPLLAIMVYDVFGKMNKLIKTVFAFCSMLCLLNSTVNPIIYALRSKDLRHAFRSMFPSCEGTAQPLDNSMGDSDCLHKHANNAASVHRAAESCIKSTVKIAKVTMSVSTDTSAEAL
# Experimental: Competition and saturation binding assays were performed using the radiolabeled CB1R/CB2R agonist [^3H]-CP55940 (PerkinElmer).
# Binding reactions were terminated by vacuum filtration onto 0.5% polyethylenimine presoaked GF/B filter plates (Packard) using a Filtermate cell harvester followed by 6 brief washes with 0.3 mL/well of ice-cold wash buffer. Wash buffer comprising 50 mmol L^–1 Tris- HCl, 5 mmol L^–1 MgCl2, 2.5 mmol L^–1 EDTA, and 0.5% fatty acid-free BSA, pH 7.4. Plates were dried at 50 °C for 1 h and liquid scintillation counting was used to determine levels of bound radiolabel. IC50 values and Hill slopes were determined with a 4-parameter logistic model using ActivityBase (ID Business Solution, Guilford, UK) and pKi values were determined using the Cheng–Prusoff equation as shown below: [drawing 1] where S indicates the concentration of the substrate and Km depicts the affinity constant of the substrate.
# Chain of MAGL (Q99685 whole entry, species assumed): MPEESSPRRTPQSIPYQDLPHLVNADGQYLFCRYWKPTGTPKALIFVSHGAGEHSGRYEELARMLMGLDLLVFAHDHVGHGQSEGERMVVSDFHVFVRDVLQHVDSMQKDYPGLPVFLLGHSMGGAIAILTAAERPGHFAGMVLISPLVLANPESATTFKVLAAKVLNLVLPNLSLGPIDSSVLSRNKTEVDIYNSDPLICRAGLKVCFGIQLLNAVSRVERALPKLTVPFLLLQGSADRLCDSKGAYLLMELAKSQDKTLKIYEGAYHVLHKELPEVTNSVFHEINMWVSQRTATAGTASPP
structure (smiles),measurement,setting,value
Cn1c(C(C)(C)C)cc(=NC(=O)c2cc(C(F)(F)F)ccc2OCC(C)(C)O)n1CC1CCC1 [RNB-61],IC50,"[1]; Table S1, read-out: MAGL (Ki, IC50)",> 10 µM
same,inhibition of EC hydrolysis by MAGL,[1]; screening concentration 10 μM,did not inhibit
same,AUC(0-inf),"[2]; iv, 1 mg kg^–1 i.v.",5.17 µg·h/mL
same,Tmax,"[2]; iv, 1 mg kg^–1 i.v.",0.083 h
same,clearance,"[2]; iv, 1 mg kg^–1 i.v.",0.21 L/h/kg
same,half-life,"[2]; iv, 1 mg kg^–1 i.v.",6 h
same,Cmax,"[2]; iv, 1 mg kg^–1 i.v., read-out: Cmax",0.619 µg/mL
same,Cmax,"[2]; iv, 1 mg kg^–1 i.v., read-out: Cmax (molar)",1.28 µM
same,Vd,"[2]; iv, 1 mg kg^–1 i.v., read-out: Vss",1.6 L/kg
same,AUC(0-inf),"[2]; po, 3 mg kg^–1 p.o.",7.41 µg·h/mL
same,Tmax,"[2]; po, 3 mg kg^–1 p.o.",5.5 h
same,bioavailability,"[2]; po, 3 mg kg^–1 p.o.",48%
same,half-life,"[2]; po, 3 mg kg^–1 p.o.",7.1 h
same,Cmax,"[2]; po, 3 mg kg^–1 p.o., read-out: Cmax",0.446 µg/mL
same,Cmax,"[2]; po, 3 mg kg^–1 p.o., read-out: Cmax (molar)",0.926 µM
same,AUC(0-inf),"[2]; po, 26 mg kg^–1 p.o.",117 µg·h/mL
same,Tmax,"[2]; po, 26 mg kg^–1 p.o.",3 h
same,bioavailability,"[2]; po, 26 mg kg^–1 p.o.",87%
same,half-life,"[2]; po, 26 mg kg^–1 p.o.",49 h
same,Cmax,"[2]; po, 26 mg kg^–1 p.o., read-out: Cmax",1.71 µg/mL
same,Cmax,"[2]; po, 26 mg kg^–1 p.o., read-out: Cmax (molar)",3.5 µM
same,Vd,"[3]; Wistar (rats), mouse strain not stated for this study, rat, mouse, plasma, intravenous, range rats and mice, read-out: volume of distribution at steady state (Vss)",1.6 to 2.4 L/kg
same,half-life,"[3]; Wistar (rats), mouse strain not stated for this study, rat, mouse, plasma, in rats and mice, read-out: terminal plasma half-life",4 to 8 h
same,plasma clearance as share of hepatic blood flow,[3]; rodent single-dose PK,~5 % of hepatic blood flow
same,inhibition of accumulation of collagen–III-I,"[4]; 3 mg kg^–1, day 8",61%
same,collagen–III-I positive area vs vehicle,"[4]; all three doses (printed 0.3, 3, and 3 mg kg^–1), day 8",significant reduction
same,Ki,[5],3.88 ± 0.0734 µM
